Legend:
[1] = Biodistribution of ^177Lu-HOPO and ^177Lu-DOTA in healthy female nude mice; type: in vivo
Experimental: Therefore, healthy female nude mice were injected with each of the complexes in order to determine their relative in vivo stabilities. The results are tabulated in Table 3 and are shown as graphs in FIG. 21A, FIG. 21B and FIG. 22.
Aliquots of the injectate (10 μL) were weighed and counted as standards with the tissues. The injection syringes were weighed pre- and post-injection to determine the weight of injectate and the activity according to the dose calibrator was measured before and after injection. All of the tissues were weighed and counted with the standards. The standards were used to obtain the counts/g injectate, the weights of the injectate were used to determine the total number of counts for the injected dose (ID), the counts of the tissue were used to get the % ID, and the weights of the tissues were used to obtain the % ID/g. Standard averaging and standard deviation calculations were applied.

[2] = Metal ion challenge of ^177Lu-HOPO and ^177Lu-DOTA; type: physicochemical; settings: 10-fold excess Cu^2+, Fe^3+, Ga^3+, Gd^3+, 6 d
Experimental: The incubations were performed at 37° C. in a thermomixer over the course of 6 d and analyzed by radioTLC using C-18 TLC plates developed with 50 mM DTPA at 1, 3, and 6 d.

[3] = Hydroxyapatite stability (competition); type: physicochemical; settings: after 6 d, 37° C.
Experimental: Additionally, each day the mixtures were vortexed to ensure proper mixing. At the respective time point, the aliquot was vortexed, centrifuged, vortexed, filtered (0.45 μm, 13 mm, nylon syringe filter, Fisher Scientific, Waltham, Mass.), and the filter washed with 1 mL of 50:50 EtOH in water. The filter (bound to hydroxyapatite), reaction tube, and filtrate (bound to the chelator) were counted separately on a gamma counter to determine the amount of activity in each.

[4] = Log D7.4 in octanol/PBS; type: physicochemical

Structure (SMILES): O=C([O-])CN1CCN(CC(=O)[O-])CCN(CC(=O)[O-])CCN(CC(=O)[O-])CC1.[177Lu+3].[H+] [^177Lu-DOTA]
- Blood/Bone ratio ([1]; 0.5 h): 5 ± 2
- Kidney/Bone ratio ([1]; 0.5 h): 13 ± 7
- L. Intestine/Bone ratio ([1]; 0.5 h): 0.6 ± 0.3
- Liver/Bone ratio ([1]; 0.5 h): 2.2 ± 0.7
- Muscle/Bone ratio ([1]; 0.5 h): 0.9 ± 0.5
- S. Intestine/Bone ratio ([1]; 0.5 h): 1.6 ± 0.6
- biodistribution Bladder ([1]; 0.5 h): 0.691 ± 0.116 % ID/g
- biodistribution Blood ([1]; 0.5 h): 0.407 ± 0.179 % ID/g
- biodistribution Bone ([1]; 0.5 h): 0.090 ± 0.026 % ID/g
- biodistribution Heart ([1]; 0.5 h): 0.142 ± 0.069 % ID/g
- biodistribution Kidneys ([1]; 0.5 h): 1.121 ± 0.490 % ID/g
- biodistribution L. Intestine ([1]; 0.5 h): 0.056 ± 0.025 % ID/g
- biodistribution Liver ([1]; 0.5 h): 0.199 ± 0.033 % ID/g
- biodistribution Lungs ([1]; 0.5 h): 0.298 ± 0.131 % ID/g
- biodistribution Muscle ([1]; 0.5 h): 0.085 ± 0.037 % ID/g
- biodistribution Pancreas ([1]; 0.5 h): 0.080 ± 0.037 % ID/g
- biodistribution S. Intestine ([1]; 0.5 h): 0.142 ± 0.038 % ID/g
- biodistribution Spleen ([1]; 0.5 h): 0.103 ± 0.019 % ID/g
- biodistribution Stomach ([1]; 0.5 h): 0.120 ± 0.035 % ID/g
- Blood/Bone ratio ([1]; 1 h): 0.6 ± 0.4
- Kidney/Bone ratio ([1]; 1 h): 30 ± 30
- L. Intestine/Bone ratio ([1]; 1 h): 0.26 ± 0.19
- Liver/Bone ratio ([1]; 1 h): 2.3 ± 1.7
- Muscle/Bone ratio ([1]; 1 h): 0.4 ± 0.4
- S. Intestine/Bone ratio ([1]; 1 h): 1.5 ± 1.1
- biodistribution Bladder ([1]; 1 h): 0.2962 ± 0.1869 % ID/g
- biodistribution Blood ([1]; 1 h): 0.0287 ± 0.0038 % ID/g
- biodistribution Bone ([1]; 1 h): 0.0491 ± 0.0349 % ID/g
- biodistribution Heart ([1]; 1 h): 0.0142 ± 0.0016 % ID/g
- biodistribution Kidneys ([1]; 1 h): 1.4402 ± 1.2901 % ID/g
- biodistribution L. Intestine ([1]; 1 h): 0.0129 ± 0.0015 % ID/g
- biodistribution Liver ([1]; 1 h): 0.1121 ± 0.0174 % ID/g
- biodistribution Lungs ([1]; 1 h): 0.0444 ± 0.0175 % ID/g
- biodistribution Muscle ([1]; 1 h): 0.0219 ± 0.0154 % ID/g
- biodistribution Pancreas ([1]; 1 h): 0.0143 ± 0.0050 % ID/g
- biodistribution S. Intestine ([1]; 1 h): 0.0722 ± 0.0209 % ID/g
- biodistribution Spleen ([1]; 1 h): 0.0410 ± 0.0100 % ID/g
- biodistribution Stomach ([1]; 1 h): 0.0230 ± 0.0174 % ID/g
- Blood/Bone ratio ([1]; 4 h): 0.18 ± 0.06
- Kidney/Bone ratio ([1]; 4 h): 40 ± 30
- L. Intestine/Bone ratio ([1]; 4 h): 6 ± 7
- Liver/Bone ratio ([1]; 4 h): 10 ± 4
- Muscle/Bone ratio ([1]; 4 h): 0.74 ± 0.15
- S. Intestine/Bone ratio ([1]; 4 h): 3 ± 3
- biodistribution Bladder ([1]; 4 h): 0.1088 ± 0.0148 % ID/g
- biodistribution Blood ([1]; 4 h): 0.0011 ± 0.0003 % ID/g
- biodistribution Bone ([1]; 4 h): 0.0060 ± 0.0007 % ID/g
- biodistribution Heart ([1]; 4 h): 0.0052 ± 0.0016 % ID/g
- biodistribution Kidneys ([1]; 4 h): 0.2398 ± 0.1571 % ID/g
- biodistribution L. Intestine ([1]; 4 h): 0.0361 ± 0.0403 % ID/g
- biodistribution Liver ([1]; 4 h): 0.0614 ± 0.0205 % ID/g
- biodistribution Lungs ([1]; 4 h): 0.0080 ± 0.0044 % ID/g
- biodistribution Muscle ([1]; 4 h): 0.0044 ± 0.0007 % ID/g
- biodistribution Pancreas ([1]; 4 h): 0.0068 ± 0.0038 % ID/g
- biodistribution S. Intestine ([1]; 4 h): 0.0209 ± 0.0180 % ID/g
- biodistribution Spleen ([1]; 4 h): 0.0249 ± 0.0009 % ID/g
- biodistribution Stomach ([1]; 4 h): 0.0038 ± 0.0026 % ID/g
- Blood/Bone ratio ([1]; 1 d): 0.04 ± 0.02
- Kidney/Bone ratio ([1]; 1 d): 46 ± 12
- L. Intestine/Bone ratio ([1]; 1 d): 10 ± 7
- Liver/Bone ratio ([1]; 1 d): 7.6 ± 1.6
- Muscle/Bone ratio ([1]; 1 d): 0.6 ± 0.3
- S. Intestine/Bone ratio ([1]; 1 d): 4 ± 3
- biodistribution Bladder ([1]; 1 d): 0.1599 ± 0.07394 % ID/g
- biodistribution Blood ([1]; 1 d): 0.0002 ± 0.00011 % ID/g
- biodistribution Bone ([1]; 1 d): 0.00484 ± 0.00076 % ID/g
- biodistribution Heart ([1]; 1 d): 0.0027 ± 0.00067 % ID/g
- biodistribution Kidneys ([1]; 1 d): 0.2226 ± 0.04562 % ID/g
- biodistribution L. Intestine ([1]; 1 d): 0.05022 ± 0.03098 % ID/g
- biodistribution Liver ([1]; 1 d): 0.0369 ± 0.00538 % ID/g
- biodistribution Lungs ([1]; 1 d): 0.0041 ± 0.00192 % ID/g
- biodistribution Muscle ([1]; 1 d): 0.00281 ± 0.00151 % ID/g
- biodistribution Pancreas ([1]; 1 d): 0.00337 ± 0.00062 % ID/g
- biodistribution S. Intestine ([1]; 1 d): 0.02037 ± 0.01362 % ID/g
- biodistribution Spleen ([1]; 1 d): 0.02143 ± 0.00625 % ID/g
- biodistribution Stomach ([1]; 1 d): 0.00294 ± 0.00146 % ID/g
- Blood/Bone ratio ([1]; 6 d): 0.007 ± 0.015
- Carcass/Bone ratio ([1]; 6 d): 0.60 ± 0.17
- Kidney/Bone ratio ([1]; 6 d): 10 ± 4
- L. Intestine/Bone ratio ([1]; 6 d): 0.34 ± 0.10
- Liver/Bone ratio ([1]; 6 d): 4.2 ± 1.2
- Muscle/Bone ratio ([1]; 6 d): 0.16 ± 0.12
- S. Intestine/Bone ratio ([1]; 6 d): 0.24 ± 0.07
- biodistribution Bladder ([1]; 6 d): 0.1186 ± 0.05899 % ID/g
- biodistribution Blood ([1]; 6 d): 0.00003 ± 0.00006 % ID/g
- biodistribution Bone ([1]; 6 d): 0.00412 ± 0.00104 % ID/g
- biodistribution Carcass ([1]; 6 d): 0.0025 ± 0.0003 % ID/g
- biodistribution Heart ([1]; 6 d): 0.00158 ± 0.00062 % ID/g
- biodistribution Kidneys ([1]; 6 d): 0.04311 ± 0.01362 % ID/g
- biodistribution L. Intestine ([1]; 6 d): 0.0014 ± 0.00017 % ID/g
- biodistribution Liver ([1]; 6 d): 0.01724 ± 0.00259 % ID/g
- biodistribution Lungs ([1]; 6 d): 0.00142 ± 0.00102 % ID/g
- biodistribution Muscle ([1]; 6 d): 0.00067 ± 0.00046 % ID/g
- biodistribution Pancreas ([1]; 6 d): 0.0012 ± 0.00048 % ID/g
- biodistribution S. Intestine ([1]; 6 d): 0.001 ± 0.00011 % ID/g
- biodistribution Spleen ([1]; 6 d): 0.01313 ± 0.00408 % ID/g
- biodistribution Stomach ([1]; 6 d): 0.00045 ± 0.00010 % ID/g
- biodistribution Bone ([1]; 6 d, listed as Lu-DOTA): 0.004±0.001 % ID/g
- residual activity in all tissues and carcass ([1]; 6 d p.i.): 0.092±0.009 % ID
- residual activity in carcass ([1]; 6 d p.i.): 0.044±0.004 % ID
- clearance pathway ([1]; healthy female nude mice): excreted mostly via the renal-urinary clearance pathway
- stability to transmetallation [2]: stable to transmetallation with all of the metals investigated in this study
- complex intact in hydroxyapatite competition [3]: > 98%
- Log D7.4 [4]: −4.1±0.4

From US10821195B2, “Compositions for therapeutics, targeted PET imaging and methods of their use” (Memorial Sloan Kettering Cancer Center, priority 2015, dated 2020)
